In one assay the target is T1, human CB1 (Homo sapiens, UniProt P21554).
T1 construct: expressed in transfected cells; host or cells: HTLA cells
The assay is classed as cell-based. As to conditions: read-out: CB1 Antagonist potency Ki. As for the experimental part: (§1) The Tango arrestin recruitment assays were performed as previously described. Briefly, HTLA cells were transiently transfected with human CB1 or CB2 Tango DNA construct overnight in DMEM supplemented with 10% FBS, 100 μg/ml streptomycin and 100 U/ml penicillin. The transfected cells were then plated into Poly-L-Lysine coated 384-well white clear bottom cell culture plates in DMEM containing 1% dialyzed FBS at a density of 10,000-15,000 cells/well. After 6 hours incubation, the plates were added with drug solutions prepared in DMEM containing 1% dialyzed FBS for overnight incubation. […] On the day of assay, medium and drug solutions were removed and 20 μL/well of BrightGlo reagent (Promega) was added. The plates were further incubated for 20 min at room temperature and counted using a Wallac TriLux Microbeta counter (PerkinElmer). Results were analyzed using GraphPad Prism 8.

The target in a further assay is T2, rat CB1 receptor (Rattus norvegicus, UniProt P20272).
T2 construct: membrane preparations from rat brain; from tissue; host or cells: rat brain membranes
T2 sequence (P20272 whole entry): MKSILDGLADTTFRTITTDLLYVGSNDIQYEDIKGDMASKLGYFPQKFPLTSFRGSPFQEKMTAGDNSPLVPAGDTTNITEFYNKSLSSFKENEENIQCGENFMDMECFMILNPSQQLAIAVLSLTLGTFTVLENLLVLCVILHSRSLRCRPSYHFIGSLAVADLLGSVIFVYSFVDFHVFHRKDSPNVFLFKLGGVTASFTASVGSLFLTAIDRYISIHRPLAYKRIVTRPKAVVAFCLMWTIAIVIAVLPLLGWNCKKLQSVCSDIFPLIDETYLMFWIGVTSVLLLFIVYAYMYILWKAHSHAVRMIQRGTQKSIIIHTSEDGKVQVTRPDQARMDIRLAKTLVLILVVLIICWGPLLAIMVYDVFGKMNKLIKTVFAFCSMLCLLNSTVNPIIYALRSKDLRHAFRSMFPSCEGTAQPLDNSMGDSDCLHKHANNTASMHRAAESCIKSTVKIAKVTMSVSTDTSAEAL
The assay is described as follows: Radioligand binding assay with [3H]CP-55,940, rat brain membranes. On the procedure: (§2) The affinities (IQ of the new compounds for rat CB1 receptor as well as for human CB2 receptors were obtained by using membrane preparations from rat brain or HEK293 cells expressing hCB2 receptors, respectively, and [^3H]CP-55,940 as the radioligand, as previously described. Results from the competition assays were analyzed using nonlinear regression to determine the IC50 values for the ligand; Ki values were calculated from the I50 (Prism by GraphPad Software, Inc.). Each experiment was performed in triplicate and Ki values determined from three independent experiments and are expressed as the mean of the three values.

The target of assay [1] is T3, human CB2 (Homo sapiens, UniProt P34972). The assay is described as follows: Tango β-arrestin recruitment antagonist assay at CB2. The assay is classed as cell-based. Set-up: expressed in transfected cells; host or cells: HTLA cells. As to conditions: Tango antagonist assay with 100 nM CP55940; n=4 independent assays, 16 dose-response points; read-out: CB2 Antagonist potency Ki. As for the experimental part: as §1
T3 sequence (P34972 whole entry): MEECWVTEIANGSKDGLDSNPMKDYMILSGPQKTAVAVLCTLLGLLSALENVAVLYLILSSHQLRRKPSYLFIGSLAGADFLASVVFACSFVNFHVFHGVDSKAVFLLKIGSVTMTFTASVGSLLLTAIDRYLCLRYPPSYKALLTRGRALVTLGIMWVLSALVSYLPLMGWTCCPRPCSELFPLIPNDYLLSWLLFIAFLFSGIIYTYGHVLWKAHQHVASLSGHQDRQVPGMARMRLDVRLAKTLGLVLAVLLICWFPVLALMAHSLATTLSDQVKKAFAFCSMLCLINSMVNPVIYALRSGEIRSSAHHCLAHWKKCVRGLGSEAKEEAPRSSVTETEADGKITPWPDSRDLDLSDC
For orientation: Arrestin recruitment assays detect the binding of arrestin to an activated receptor.

Assay [2] has as its target T3, human CB2. The assay is described as follows: Radioligand binding assay with [3H]CP-55,940, HEK293 cells expressing hCB2. Set-up: expressed in transfected cells; host or cells: HEK293 cells. On the procedure: as §2
In assay [3] the test system is panel of more than 300 receptors. The assay is described as follows: PRESTO-Tango GPCRome off-target panel. The assay is classed as cell-based. As to conditions: for activities at off-targets in follow-up dose-response curves: follow-up dose-response of potential actives. As for the experimental part: Screening of the compounds in the PRESTO-Tango GPCRome was performed as previously described with modifications. First, HTLA cells were plated in poly-L-lysine coated 384-well white plates in DMEM containing 1% dialyzed FBS for 6 hours. Next, the cells were transfected with 20 ng/well PRESTO-Tango receptor DNAs overnight. Then, the cells were added with 10 μM drugs without changing the medium and incubated for another 24 hours. The remaining steps of the PRESTO-Tango protocol were followed. The results were plotted as fold of basal against individual receptors in the GraphPad 8.0 software. For the receptors that had >3-fold of basal signaling activity, assays were repeated as a full dose-response assay and the results were plotted as a percentage of reference compounds.

[4] abbreviates: rat CB1, [3H]CP-55,940 radioligand, read-out: CB1 affinity Ki.
Setting [5] is: human CB2, [3H]CP-55,940, estimates from 3-point assays, read-out: CB2 affinity Ki (asterisk: estimate from 3-point assays).
Where [6] appears, read: human CB2, [3H]CP-55,940 radioligand, read-out: CB2 affinity Ki.
The mark [7] stands for this setting: rat CB1, [3H]CP-55,940, estimates from 3-point assays, read-out: CB1 affinity Ki (asterisk: estimate from 3-point assays).

We go through 20 molecules from patent US20220293224A1, “MODULAR SYNTHON-BASED SCREENING APPROACH FOR USE IN DRUG DISCOVERY FOR DISEASES” (priority 2021, published 2022).

Like-named read-outs stand apart in the source and are kept apart here.

T1 sequence (P21554 whole entry): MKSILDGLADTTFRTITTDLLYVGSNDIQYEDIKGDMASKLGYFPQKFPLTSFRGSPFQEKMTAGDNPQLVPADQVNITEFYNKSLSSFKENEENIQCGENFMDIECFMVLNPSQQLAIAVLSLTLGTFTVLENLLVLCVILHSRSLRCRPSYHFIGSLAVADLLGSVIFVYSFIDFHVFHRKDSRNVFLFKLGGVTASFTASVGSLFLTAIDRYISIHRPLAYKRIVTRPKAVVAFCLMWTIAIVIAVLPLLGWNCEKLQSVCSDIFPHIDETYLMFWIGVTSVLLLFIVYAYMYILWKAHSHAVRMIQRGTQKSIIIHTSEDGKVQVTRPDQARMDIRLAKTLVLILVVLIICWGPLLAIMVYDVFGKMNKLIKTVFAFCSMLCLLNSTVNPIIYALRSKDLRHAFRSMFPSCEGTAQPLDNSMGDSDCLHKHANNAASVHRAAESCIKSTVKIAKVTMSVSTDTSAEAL

As usually defined, the Ki is the dissociation constant of the complex between target and ligand, obtained from inhibition or displacement. Regarding `Cc1ccc(NC(=O)Nc2ccn(C3CCOCC3)n2)cc1S(=O)(=O)N1CCCCCC1` [BRI-13505], the Ki on human CB1 was 0.28 µM; at rat CB1 receptor (setting [4]), 16.4 µM; at human CB2 [1], 0.54 µM; on human CB2 [2] (setting [5]) it was 1 µM.
Take `O=C1Cc2cc(NC(=O)C(=O)NC(CCc3ccccc3)c3ccccc3)ccc2N1` (stereo not drawn) [BRI-13515]: the Ki was found to be 0.94 µM at human CB1, 6.1 µM on rat CB1 receptor (setting [4]), 3.81 µM at human CB2 [1] and 2.85 µM on human CB2 [2] (setting [6]).
Take `Cc1cc(Cl)cn2cc(CNC(=O)C(=O)NC(COc3ccccc3)c3ccccc3)nc12` (stereo not drawn) [BRI-13520]: the Ki on human CB1 was 1.07 µM; on rat CB1 receptor (setting [4]) it was 11.6 µM; on human CB2 [1] it was 5.2 µM; at human CB2 [2] (setting [6]), 12.8 µM.
Consider `C=CCC1(S(=O)(=O)NC(=O)c2ccc(N3CCCCC3)c(S(=O)(=O)N3CCCCCC3)c2)CC1` [BRI-13523], for which the Ki on human CB1 turned out to be 1.82 µM; at rat CB1 receptor (setting [4]), 12 µM; at human CB2 [1] it was 1.59 µM; at human CB2 [2] (setting [6]), 0.85 µM. Also, the “activities at off-targets in follow-up dose-response curves” value in assay [3] is given as “only negligible activities”. In addition, the “selectivity against the GPCRome-Tango panel” value in assay [3] (panel of more than 300 receptors) is “high selectivity”.
For `Cc1ccc(NC(=O)Nc2ccn(C3CCCCCC3)n2)cc1S(=O)(=O)N1CCCCCC1` [BRI-13544], the Ki on human CB2 [1] was 7.78 µM; at human CB2 [2] (setting [5]), 2.5 µM.
With `CC1(C)NC(=O)N(CCCNC(=O)NCc2oc3ccc(Cl)cc3c2-c2ccccc2)C1=O` [BRI-13559], the Ki on human CB1 came out at 0.98 µM; at human CB2 [1] it was 4.25 µM; on human CB2 [2] (setting [6]) it was 12.2 µM.
As for `COc1ccc(-c2nccc(N3CCCC(Cc4ccc(N)nc4)C3)n2)cc1` (stereo not drawn) [BRI-13565], the Ki on rat CB1 receptor (setting [7]) is 4.5 µM; on human CB2 [1], 3.77 µM; on human CB2 [2] (setting [6]), 13.6 µM.
As for `O=C(NCC1(Cc2ccccc2)CC=CCC1)C(=O)Nc1c(F)ccc(Br)c1F` (stereo not drawn) [BRI-13566], the Ki at human CB1 is 2.05 µM; at rat CB1 receptor (setting [7]), 6.9 µM; on human CB2 [1], 4.04 µM; on human CB2 [2] (setting [6]), 1.2 µM.
For `Cn1ccc(-n2cc(-c3csc(C(NC(=O)c4ccccc4)c4ccccc4)n3)nn2)n1` (stereo not drawn) [BRI-13580], the results for the Ki at human CB1, at human CB2 [1] and at human CB2 [2] (setting [5]) were 5.8 µM, 6.92 µM and 1.5 µM, respectively.
In the case of `Cc1ccc(NC(=O)N2CCC(O)(c3ccccc3F)C2)cc1S(=O)(=O)N1CCCCCC1` (stereo not drawn) [BRI-13599], the Ki on human CB1 is 2.33 µM; on rat CB1 receptor (setting [7]), 26.5 µM; on human CB2 [1], 2.44 µM; on human CB2 [2] (setting [6]) it was 10.4 µM.
As for `O=C(Nc1ccn(C2CCCCC2)n1)C(=O)NC(CCc1ccccc1)c1ccccc1` (stereo not drawn) [BRI-13610], the Ki came out at 0.76 µM on human CB1, 0.62 µM at rat CB1 receptor (setting [4]), 4.17 µM on human CB2 [1] and 0.28 µM on human CB2 [2] (setting [6]). The “activities at off-targets in follow-up dose-response curves” value in assay [3] is on record as “only negligible activities”.
Turning to `O=C1CCc2cc(OCCNC(=O)N(Cc3ccccc3)Cc3ccc(F)cc3)ccc2N1` [BRI-13619], the Ki on human CB1 is 0.05 µM; at rat CB1 receptor (setting [7]), 45 µM; at human CB2 [1] it was 0.11 µM.
The corresponding values for `N#Cc1ccc(C(=O)NCCN(Cc2ccccc2)C(=O)c2cc(C(F)(F)F)cs2)s1` [BRI-13633] are 0.23 µM, 10 µM and 1.53 µM.
Turning to `CS(C)(=O)=NS(=O)(=O)c1cccc(C(=O)OCc2cccc3ccsc23)c1` [BRI-13650], the Ki on human CB1 is 3.22 µM; at rat CB1 receptor (setting [7]), 45 µM; on human CB2 [1], 12.2 µM.
As for `O=S(=O)(NC1CC1)c1ccc(S(=O)(=O)NC(CCc2ccccc2)c2ccccn2)cc1` (stereo not drawn) [BRI-13661], the Ki on human CB1 was 0.55 µM; on rat CB1 receptor (setting [7]), 19 µM; on human CB2 [1], 4.37 µM; at human CB2 [2] (setting [6]), 4 µM.
Take `O=C(C1CC1)N1CCc2ccc(S(=O)(=O)NC(CCc3ccccc3)c3ccccn3)cc21` (stereo not drawn) [BRI-13663]: the Ki was 12.5 µM at rat CB1 receptor (setting [7]), 14.5 µM at human CB2 [1] and 14.3 µM at human CB2 [2] (setting [6]).
As to `O=C(c1ccc(F)cc1)c1cc(Cl)ccc1NS(=O)(=O)c1cnn(C2CCCCC2)c1` [BRI-13665], the Ki on human CB1 is 0.39 µM; at rat CB1 receptor (setting [7]) it was more than 7 µM; on human CB2 [1], 0.82 µM; at human CB2 [2] (setting [6]), 6.7 µM.
For the molecule `Cc1ccc(CN(Cc2ccco2)S(=O)(=O)c2cnn(-c3ccccc3F)c2)s1` [BRI-13668], the Ki at human CB2 [1] is 4.78 µM; at human CB2 [2] (setting [6]), 5.2 µM.
As for `CCCC(NS(=O)(=O)C1CC2(CC2)C1)C(=O)Nc1cccc(N2CCCC2)c1` (stereo not drawn) [BRI-13681], the Ki at human CB1 was found to be 0.42 µM; on rat CB1 receptor (setting [4]), 8.2 µM; on human CB2 [1], 1.86 µM; at human CB2 [2] (setting [6]) it was 4.2 µM.
The corresponding values for `O=S(=O)(C1=Cc2cc(Cl)ccc2OC1)N(CCc1ccccn1)Cc1cccnc1` [BRI-13684] are 1.16 µM, 25.5 µM, 7.28 µM and 5.3 µM.
